How the values were obtained:
Experiment in all cases: Cell proliferation inhibition experiment, CellTiter-Glo (CTG) method
Assay type in all cases: cell-based
[1] = tested on: NCI-H1975; settings: for IC50: Homo sapiens, NCI-H1975, 72 h, NCI-H1975 cells, CTG, 3 days; for A-431/NCI-H1975 Selectivity: ratio of A-431 IC50 to NCI-H1975 IC50
Description: (§1) Cell Proliferation Inhibition Experiment
(§2) Compounds were tested in the selected cell lines, and solvent is set as control, nine concentrations were detected with three parallel wells for each concentration.
(§3) 2. Reagents and Materials • 1) fetal bovine serum FBS (GIBCO, Cat #10099-141) • 2) CellTiter-Glo® Luminescent Cell Viability Assay (Promega, Cat #G7572) • 3) 96-well plate with flat clear bottom, black wall plates (Corning®, Cat #3340)
(§4) The first day: Incubation and plant of cells • 1) Cells in logarithmic growth phase were harvested and counted by cell counter. Cell viability was detected by trypan blue exclusion assay to ensure that the viability of each cell line was above 90%. • 2) Cell concentration was adjusted by diluting complete culture medium, and 90 μL cell suspension was added to a 96-well plate (T0 plate and drug plate to be tested) to make the cell density reach the specified concentration. • 3) Cells in 96-well plate were incubated overnight at condition of 37° C., 5% CO2 and 95% humidity.
(§5) The second day: Reading T0 plate • 1) 10 μL culture medium was added to T0 plate. • 2) CTG reagent was melt, while the cell plate was balanced to room temperature for 30 minutes. • 3) The same volume of CTG solution was added to each well. • 4) The cell plate was vibrated for 2 minutes on an orbital shaker to lyze the cells. • 5) The cell plate was placed at room temperature for 10 minutes to stabilize the cold light signal. • 6) The cold light value was read with EnVision.
(§6) Drug Addition • 1) Drug dilution. The compounds to be tested were dissolved and packaged, then a gradient elution was performed to obtain a solution diluted 10 times. • 2) Drug addition. […] drug solution was added into each well of the 96-well plate, which was inoculated cells, three parallel wells were set for each cell concentration.
(§7) The third day: reading plate at the terminal • 1) CTG reagent was melt, while the cell plate was balanced to room temperature for 30 minutes. • 2) The same volume of CTG solution was added to each well. • 3) The cell plate was vibrated for 2 minutes on an orbital shaker to lyze the cells. • 4) The cell plate was placed at room temperature for 10 minutes to stabilize the cold light signal. • 5) The cold light value was read with EnVision
(§8) Data were analyzed using GraphPad Prism 5.0 software, and non-linear S curve regression was used for fitting the data to give a dose-effect curve, IC50 value was calculated accordingly. Cell Survival Rate (%)=(Lumdrugs−Lumcontrol)/(Lumcell−Lumcontrol)×100%.

[2] = tested on: PC-9; settings: Homo sapiens, PC-9, 72 h, PC-9 cells, 3 days
Description: as §1, §2, §3, §4, §5, §6, §7, §8

[3] = tested on: A-431; settings: Homo sapiens, A-431, 72 h, A-431 cells, 3 days
Description: as §1, §2, §3, §4, §5
Drug Addition • 1) Drug dilution. The compounds to be tested were dissolved and packaged, then a gradient elution was performed to obtain a solution diluted 10 times. • 2) Drug addition. […] drug solution was added into each well of the 96-well plate, which was inoculated cells, three parallel wells were set for each cell concentration. The highest concentration of the compounds to be tested on A-431 was 30 μM, nine concentrations was set with 3 times dilution; while the highest concentration on NCI-H1975 and PC-9 was 1.111 μM, 9 concentrations was set with 3 times dilution. • 3) Culture. Cells in 96-well plates in which drugs have been added were cultured at condition of 37° C., 5% CO2 and 95% humidity for 3 days, and then CTG assay was performed respectively.
as §7, §8

Structure (SMILES) | IC50 [1] | A-431/NCI-H1975 Selectivity [1] | IC50 [2] | IC50 [3]
C=CC(=O)Nc1cc(Nc2cc(-c3ccc4c(cnn4C)c3)ncn2)c(OC)cc1N(C)CCN1CCCC1 [compound 36] | 31.4 nM | 32.3 | 22 nM | 1010 nM
C=CC(=O)Nc1cc(Nc2cc(-c3ccc4c(cnn4C)c3)ncn2)c(OC)cc1N(C)CCN1CCCCC1 [compound 37] | 67.5 nM | 25.5 | 79.8 nM | 1720 nM
C=CC(=O)Nc1cc(Nc2cc(-c3ccc4c(cnn4C)c3)ncn2)c(OC)cc1N(C)CCN1CCOCC1 [compound 38] | 75.9 nM | 43.7 | 89.7 nM | 3310 nM
C=CC(=O)Nc1cc(Nc2cc(-c3ccc4c(cnn4C)c3)ncn2)c(OC)cc1N1CCCN(C)CC1 [compound 39] | 24.5 nM | 39.6 | 25.7 nM | 973 nM
C=CC(=O)Nc1cc(Nc2cc(-c3ccc4c(cnn4C)c3)ncn2)c(OC)cc1N(C)CCCN(C)C [compound 40] | 57 nM | 34.5 | 46.1 nM | 1960 nM
C=CC(=O)Nc1cc(Nc2cc(-c3ccc4cnn(C)c4c3)ncn2)c(OC)cc1N1CCN(C)C(C)C1 (centres unmarked) [compound 41] | 20.4 nM | 30.0 | 10.6 nM | 612 nM
C=CC(=O)Nc1cc(Nc2cc(-c3ccc4cnn(C)c4c3)ncn2)c(OC)cc1N1CC(C)N(C)C(C)C1 (centres unmarked) [compound 42] | 25.8 nM | – | 34.6 nM | 686 nM
C=CC(=O)Nc1cc(Nc2cc(-c3ccc4cnn(C)c4c3)ncn2)c(OC)cc1N1CCN(C)CC1 [compound 43] | 29.8 nM | 38.3 | 16.7 nM | 1140 nM
C=CC(=O)Nc1cc(Nc2cc(-c3ccc4cnn(C)c4c3)ncn2)c(OC)cc1N1CCN(C)C[C@H]1C [compound 44] | 102 nM | 15.7 | 32.8 nM | 1600 nM
C=CC(=O)Nc1cc(Nc2cc(-c3ccc4cnn(C)c4c3)ncn2)c(OC)cc1N1CCC(OC)CC1 [compound 45] | 137 nM | 19.0 | 23.6 nM | 2610 nM
C=CC(=O)Nc1cc(Nc2cc(-c3ccc4cnn(C)c4c3)ncn2)c(OC)cc1N1CCN(C2CCOCC2)CC1 [compound 46] | 82.8 nM | 15.1 | 32.7 nM | 1250 nM
C=CC(=O)Nc1cc(Nc2cc(-c3ccc4cnn(C)c4c3)ncn2)c(OC)cc1N1CCCN(C)CC1 [compound 47] | 49 nM | 13.7 | 34 nM | 671 nM
C=CC(=O)Nc1cc(Nc2cc(-c3ccc4cnn(C)c4c3)ncn2)c(OC)cc1N1CCN(CC)[C@@H](C)C1 [compound 48] | 67.2 nM | 20.7 | 49.7 nM | 1390 nM
C=CC(=O)Nc1cc(Nc2cc(-c3ccc4cnn(C)c4c3)ncn2)c(OC)cc1N1CCN(CC)[C@H](C)C1 [compound 49] | 85.6 nM | 17.2 | 88 nM | 1470 nM
C=CC(=O)Nc1cc(Nc2cc(-c3ccc4cnn(C)c4c3)ncn2)c(OC)cc1N1CCN(C)[C@@H](C)C1 [compound 50] | 59.2 nM | 18.2 | 47.5 nM | 1080 nM
C=CC(=O)Nc1cc(Nc2cc(-c3ccc4cnn(C)c4c3)ncn2)c(OC)cc1N1CCN(C)[C@H](C)C1 [compound 51] | 69.4 nM | 20.8 | 59.8 nM | 1450 nM
C=CC(=O)Nc1cc(Nc2cc(-c3ccc4cnn(C)c4c3)ncn2)c(OC)cc1N1CCC(N2CCN(C)CC2)CC1 [compound 52] | 41.7 nM | 14.7 | 39 nM | 615 nM
C=CC(=O)Nc1cc(Nc2cc(-c3ccc4cnn(C)c4c3)ncn2)c(OC)cc1N1CCC(C2CCN(C)CC2)CC1 [compound 53] | 151 nM | 8.3 | 67.9 nM | 1250 nM
C=CC(=O)Nc1cc(Nc2cc(-c3ccc4cnn(C)c4c3)ncn2)c(OC)cc1N(C)C1CCN(C)CC1 [compound 54] | 111 nM | 11.8 | 88.2 nM | 1310 nM
C=CC(=O)Nc1cc(Nc2cc(-c3ccc4cnn(C)c4c3)ncn2)c(OC)cc1N1CCC(N2CCOCC2)CC1 [compound 55] | 32.2 nM | – | 3.6 nM | 586 nM
C=CC(=O)Nc1cc(Nc2cc(-c3ccc4c(C)nn(C)c4c3)ncn2)c(OC)cc1N1CC(C)N(C)C(C)C1 (centres unmarked) [compound 56] | 113 nM | 10.9 | 56.7 nM | 1230 nM
C=CC(=O)Nc1cc(Nc2cc(-c3ccc4c(cnn4C)c3)ncn2)c(OC)cc1NCCN(C)C [compound 58] | 8.8 nM | – | 6.9 nM | 1130 nM
C=CC(=O)Nc1cc(Nc2cc(-c3ccc4c(cnn4C)c3)ncn2)c(OC)cc1N1CCN(CCN(C)C)CC1 [compound 59] | 10 nM | – | 8.9 nM | 1270 nM
C=CC(=O)Nc1cc(Nc2cc(-c3ccc4c(cnn4C)c3)ncn2)c(OC)cc1N(C)CCNC(C)(C)C [compound 61] | 17.8 nM | – | 9.4 nM | 1620 nM
C=CC(=O)Nc1cc(Nc2cc(-c3ccc4ncsc4c3)ncn2)c(OC)cc1N(C)CCN(C)C [compound 63] | 4.1 nM | 130.7 | 6.5 nM | 540 nM
C=CC(=O)Nc1cc(Nc2cc(-c3ccc4ncsc4c3)ncn2)c(OC)cc1N1CCC(N2CCN(C)CC2)CC1 [compound 64] | 13.1 nM | 52.6 | 5.4 nM | 690 nM
C=CC(=O)Nc1cc(Nc2cc(-c3ccc4nc(C)sc4c3)ncn2)c(OC)cc1N(C)CCN(C)C [compound 65] | 10.9 nM | 70.2 | 12 nM | 765 nM
C=CC(=O)Nc1cc(Nc2cc(-c3ccc4c(cnn4C)c3)ncn2)c(OCC)cc1N(C)C1CCN(C)C1 (centres unmarked) [compound 66] | 8.1 nM | 96.2 | 8.5 nM | 779 nM
